One may read the Dmax as the largest share of the target that was removed. As a reminder, the DC50 is the midpoint of the concentration-degradation curve.

The values below come from patent US11986532B2 (Arvinas Operations, Inc., priority 2021, dated 2024).

The assay addresses T1, BCL6 (Homo sapiens, UniProt P41182).
T1 construct: endogenous in cells; host or cells: T47D breast cancer epithelial cells
The assay can be described thus: Immunofluorescence protocol for high content imaging of BCL6 (degradation) in T47D cells, 3 days compound treatment. The class given is cell-based. Particulars: for Dmax: read-out: Mean Dmax (%)** category; for DC50: read-out: Mean DC50 (nM)* category. How it is done: Immunofluorescence Protocol for High Content Imaging of BCL6
T47D cells were seeded in 100 μl volume of RPMI1640-10% FBS in a 96-well black/clear bottom plates for adherent lines (Corning #3904).
Day 1. T47D breast cancer epithelial cells were seeded at a density so that confluence is ˜70-90% at endpoint. Cells were seeded at 7K/0.1 ml/well the morning prior to the addition of exemplary bifunctional degradation compounds.
Day 2. Prepare an 11 point 3-fold serial dilution of exemplary bifunctional compound in DMSO and aliquot an appropriate volume to cell growth media to generate a 2× final concentration of exemplary bifunctional compound. Add an equal volume (0.1 ml) of 2× exemplary bifunctional compound/media mix to previously plated cells, for a final top concentration in aqueous cell growth media of 0.1 or 1 μM. Incubate for 3 days at 37° C., 5% CO2.
Day 5 Immunofluorescence. Discard cell media. Wash wells with 200 μl of room temperature phosphate-buffered saline (PBS). Prepared 4% paraformaldehyde (PFA) from 16% PFA (Electron Microscopy Sciences #15710) using 1×PBS. Fifty μl of 4% PF was added to each well and incubate for 15 minutes at room temperature to fix the cells. The PFA was aspirated and the cells washed twice with PBS (200 μl)).
Prepared 0.1% Triton X-100 in PBS using 10% triton X-100 stock. The cells were permeabilized by adding 100 ul of the 0.1% Triton X-100 in PBS to each well to permeabilize cells and incubating at room temperature for 15 minutes. Cells were washed twice with PBS.
Prepared 3% BSA/PBS (from Thermofisher #37515 Blocker BSA in TBS, 10%), and 100 ul was added to each well. The cells were incubated for at least 1 hour at room temperature.
Prepared 1% BSA/PBS using Blocker BSA/PBS, and the 3% BSA/PBS removed from the wells.
For no primary antibody controls, 50 μl 1% BSA/PBS was added.
Primary antibody (BCL6 Rb Ab, CST-14895, Cell Signaling) was diluted 1:300 in 1% BSA/PBS using Blocker BSA/PBS.
Fifty μl of primary antibody added to all remaining wells (i.e., all wells other than the primary antibody controls) and the cells were incubated overnight at 4° C. with slow orbital movement.
Day 6. Contents of the wells was removed and the cells washed four times with 200 ul PBS. 1% BSA/PBS was prepared using Blocker BSA in PBS.
Diluted secondary antibody goat anti-Rb IgG Alexa-488 1:1000, and cell mask-Alexa-647 1:3000 in 1% BSA/PBS in the same mix. Add 50 μl to each well and incubate at room temperature for 1 hour in the dark.
Cells were washed three times with 200 ul PBS, and then incubated for 10 minutes with 100 ul Hoechst dye at 1 μg/mL (20 mM stock) to stain cell nuclei. Wells were then washed with 200 μl PBS, and 100 ul of PBS was added to each well and the plate covered plate with a plastic opaque cover. Plates were stored at 4° C. and covered in aluminum foil until imaged.
Plates were equilibrated to room temperature prior to reading. The bottom of the plate was wiped with 70% isopropanol immediately prior to imaging.
10×, 4 fields/well, include Top hat smoothing in the analysis protocol.
16% paraformaldehyde: Electron Microscopy Sciences #15710
Hoechst: Thermofisher #62249
Blocker BSA in PBS, 10%: Thermofisher #37515
Blocker BSA in TBS, 10%: Thermofisher #37520
Goat anti-rabbit or mouse AlexaFluor-488: Thermofisher #A11008
Cell mask deep red AlexaFluor-647: Thermofisher #C10046
Wash buffer, PBS: 20×PBS, Thermofisher

Where [1] appears, read: T47D cells, 3 days compound treatment.

SMILES strings stand for the structures. Read-outs that look alike come from different tables or passages of the source.

For the compound `CNC(=O)COc1cc2cc(Nc3nc(N4CCC(O[C@H]5C[C@H](N6CCC7(CCN(c8ccc9c(c8)CN(C8CCC(=O)NC8=O)C9=O)C7)C6)C5)CC4)ncc3Cl)ccc2n(C(C)C)c1=O` (stereo partly drawn) [Compound 346, 2-({6-[(5-chloro-2-{4-[(1r,3r)-3-{7-[2-(2,6-dioxopiperidin-3-yl)-1-oxo-2,3-dihydro-1H-isoindol-5-yl]-2,7-diazaspiro [4.4]nonan-2-yl}cyclobutoxy]piperidin-1-yl}pyrimidin-4-yl)amino]-2-oxo-1-(propan-2-yl)-1,2-dihydroquinolin-3-yl}oxy)-N-methylacetamide], the 50% degradation concentration (DC50) is < 10 nM. For the setting “T47D”, the greatest degradation seen (Dmax) is ≥ 70%.
Turning to `CNC(=O)COc1cc2cc(Nc3nc(N4CCN(C[C@H]5C[C@@H](N6CCC(c7ccc8c(c7)C(=O)N(C7CCC(=O)NC7=O)C8=O)CC6)C5)CC4)ncc3Cl)ccc2n(C(C)C)c1=O` (stereo partly drawn) [Compound 40, 2-[(6-{[5-chloro-2-(4-{[(1s,3s)-3-{4-[2-(2,6-dioxopiperidin-3-yl)-1,3-dioxo-2,3-dihydro-1H-isoindol-5-yl]piperidin-1-yl}cyclobutyl]methyl}piperazin-1-yl)pyrimidin-4-yl]amino}-2-oxo-1-(propan-2-yl)-1,2-dihydroquinolin-3-yl)oxy]-N-methylacetamide], under setting [1], the half-maximal degradation concentration (DC50) was in the range of 10 to 50 nM and the Dmax is 50 to 70%.
For `CNC(=O)COc1cc2cc(Nc3nc(N4CCC(OC5CCC6(CC5)CN(c5ccc7c(c5C)CN(C5CCC(=O)NC5=O)C7=O)C6)CC4)ncc3Cl)ccc2n(C(C)C)c1=O` (stereo not drawn) [Compound 402, 2-{[6-({5-chloro-2-[4-({2-[2-(2,6-dioxopiperidin-3-yl)-4-methyl-1-oxo-2,3-dihydro-1H-isoindol-5-yl]-2-azaspiro[3.5]nonan-7-yl}oxy)piperidin-1-yl]pyrimidin-4-yl}amino)-2-oxo-1-(propan-2-yl)-1,2-dihydroquinolin-3-yl]oxy}-N-methylacetamide], the DC50 was < 10 nM. The Dmax (T47D) is ≥ 70%.
Consider `CNC(=O)COc1cc2cc(Nc3nc(N4CCC(O[C@H]5C[C@H](N6CCC7(CCN(c8ccc9c(c8)CN(C8CCC(=O)NC8=O)C9=O)CC7)C6)C5)CC4)ncc3Cl)ccc2n(C(C)C)c1=O` (stereo partly drawn) [Compound 363, 2-({6-[(5-chloro-2-{4-[(1r,3r)-3-{8-[2-(2,6-dioxopiperidin-3-yl)-1-oxo-2,3-dihydro-1H-isoindol-5-yl]-2,8-diazaspiro[4.5]decan-2-yl}cyclobutoxy]piperidin-1-yl}pyrimidin-4-yl)amino]-2-oxo-1-(propan-2-yl)-1,2-dihydroquinolin-3-yl}oxy)-N-methylacetamide], for which the “Mean Dmax (%)** category” value is reported as “A (A >= 70)” and the DC50 was < 10 nM.
Regarding `CNC(=O)COc1cc2cc(Nc3nc(N4CCN(C(C)(C)C5CCN(c6ccc7c(c6OC)CN(C6CCC(=O)NC6=O)C7=O)CC5)CC4)ncc3Cl)ccc2n(C(C)C)c1=O` (stereo not drawn) [Compound 78, 2-{[6-({5-chloro-2-[4-(2-{1-[2-(2,6-dioxopiperidin-3-yl)-4-methoxy-1-oxo-2,3-dihydro-1H-isoindol-5-yl]piperidin-4-yl}propan-2-yl)piperazin-1-yl]pyrimidin-4-yl}amino)-2-oxo-1-(propan-2-yl)-1,2-dihydroquinolin-3-yl]oxy}-N-methylacetamide], under setting [1], the half-maximal degradation concentration (DC50) was < 10 nM and the Dmax was < 50%.
`CCn1c(=O)c(OCC(=O)NC)cc2cc(Nc3nc(N4CCC(O[C@H]5C[C@H](N6CCC(c7ccc8c(c7)C(=O)N(C7CCC(=O)NC7=O)C8=O)CC6)C5)CC4)ncc3Cl)ccc21` (stereo partly drawn) [Compound 5, 2-[[6-[[5-chloro-2-[4-[3-[4-[2-(2,6-dioxo-3-piperidyl)-1,3-dioxo-isoindolin-5-yl]-1-piperidyl]cyclobutoxy]-1-piperidyl]pyrimidin-4-yl]amino]-1-ethyl-2-oxo-3-quinolyl]oxy]-N-methyl-acetamide]: under setting [1], the half-maximal degradation concentration (DC50) was < 10 nM and the Dmax was ≥ 70%.
As for `CNC(=O)COc1cc2cc(Nc3nc(N4CCC(OC5CCC6(CC5)CN(c5c(OC)ccc7c5CN(C5CCC(=O)NC5=O)C7=O)C6)CC4)ncc3Cl)ccc2n(C(C)C)c1=O` (stereo not drawn) [Compound 300, 2-{[6-({5-chloro-2-[4-({2-[2-(2,6-dioxopiperidin-3-yl)-5-methoxy-1-oxo-2,3-dihydro-1H-isoindol-4-yl]-2-azaspiro[3.5]nonan-7-yl}oxy)piperidin-1-yl]pyrimidin-4-yl}amino)-2-oxo-1-(propan-2-yl)-1,2-dihydroquinolin-3-yl]oxy}-N-methylacetamide], the DC50 was < 10 nM. Also, the maximal degradation (Dmax) (T47D) fell in the range of 50 to 70%.
Take `CNC(=O)COc1cc2cc(Nc3nc(N4CCC(O[C@H]5C[C@H](N6CCN(c7ccc8c(n7)C(C)N(C7CCC(=O)NC7=O)C8=O)[C@H](C)C6)C5)CC4)ncc3Cl)ccc2n(C(C)C)c1=O` (stereo in doubt) [Compound 203, 2-({6-[(5-chloro-2-{4-[(1r,3r)-3-[(3R)-4-[6-(2,6-dioxopiperidin-3-yl)-7-methyl-5-oxo-5H,6H, 7H-pyrrolo[3,4-b]pyridin-2-yl]-3-methylpiperazin-1-yl]cyclobutoxy]piperidin-1-yl}pyrimidin-4-yl)amino]-2-oxo-1-(propan-2-yl)-1,2-dihydroquinolin-3-yl}oxy)-N-methylacetamide]: under setting [1], the DC50 is < 10 nM and the maximal degradation (Dmax) is ≥ 70%.
Take `CNC(=O)COc1cc2cc(Nc3nc(N4CCC(O[C@H]5C[C@H](N6CCN(c7ccc8c(n7)CN(C7CCC(=O)NC7=O)C8=O)CC6)C5)CC4)ncc3Cl)ccc2n(C(C)C)c1=O` (stereo partly drawn) [Compound 189, 2-((6-((5-chloro-2-(4-((1r,3r)-3-(4-(6-(2,6-dioxopiperidin-3-yl)-5-oxo-6,7-dihydro-5H-pyrrolo[3,4-b]pyridin-2-yl)piperazin-1-yl)cyclobutoxy)piperidin-1-yl)pyrimidin-4-yl)amino)-1-isopropyl-2-oxo-1,2-dihydroquinolin-3-yl)oxy)-N-methylacetamide]: under setting [1], the DC50 was < 10 nM and the Dmax is 50 to 70%.
For `CNC(=O)COc1cc2cc(Nc3nc(N4CCC(O[C@H]5C[C@H](N6CCC7(CCCN(c8ccc9c(c8)C(=O)N(C8CCC(=O)NC8=O)C9=O)C7)C6)C5)CC4)ncc3Cl)ccc2n(C(C)C)c1=O` (stereo partly drawn) [Compound 359, 2-({6-[(5-chloro-2-{4-[(1r,3r)-3-{7-[2-(2,6-dioxopiperidin-3-yl)-1,3-dioxo-2,3-dihydro-1H-isoindol-5-yl]-2,7-diazaspiro [4.5]decan-2-yl}cyclobutoxy]piperidin-1-yl}pyrimidin-4-yl)amino]-2-oxo-1-(propan-2-yl)-1,2-dihydroquinolin-3-yl}oxy)-N-methylacetamide], the half-maximal degradation concentration (DC50) lay within 10 to 50 nM. Also, under “T47D”, the Dmax fell in the range of 50 to 70%.
For `CNC(=O)COc1cc2cc(Nc3nc(N4CCC(O[C@H]5C[C@H](N6CCC(c7ccc8c(c7)CN(C7CCC(=O)NC7=O)C8=O)C(F)(F)C6)C5)CC4)ncc3Cl)ccc2n(C(C)C)c1=O` (stereo partly drawn) [Compound 218, 2-[[6-[[5-chloro-2-[4-[3-[4-[2-(2,6-dioxo-3-piperidyl)-1-oxo-isoindolin-5-yl]-3,3-difluoro-1-piperidyl]cyclobutoxy]-1-piperidyl]pyrimidin-4-yl]amino]-1-isopropyl-2-oxo-3-quinolyl]oxy]-N-methyl-acetamide], the DC50 was < 10 nM. For the same compound, the Dmax (T47D) was ≥ 70%.
`CNC(=O)COc1cc2cc(Nc3nc(N4CCC(F)(CN5CCC6(CC5)CN(c5cccc7c5CN(C5CCC(=O)NC5=O)C7=O)C6)CC4)ncc3Cl)ccc2n(C(C)C)c1=O` (stereo not drawn) [Compound 52, 2-{[6-({5-chloro-2-[4-({2-[2-(2,6-dioxopiperidin-3-yl)-1-oxo-2,3-dihydro-1H-isoindol-4-yl]-2,7-diazaspiro[3.5]nonan-7-yl}methyl)-4-fluoropiperidin-1-yl]pyrimidin-4-yl}amino)-2-oxo-1-(propan-2-yl)-1,2-dihydroquinolin-3-yl]oxy}-N-methylacetamide]: under setting [1], the 50% degradation concentration (DC50) is < 10 nM and the maximal degradation (Dmax) was ≥ 70%.
